Reference: US20220409727A1, “Metal Complexes Bearing Bisstyryl-Bipyridine Ligand and Their Use as Photosensitizer Agent in One and Two-Photon Photodynamic Therapy” (Paris Sciences et Lettres, priority 2019, published 2022)
Where two headings read alike, the source gives them in different places.

Experiments:
[1] = system: human cervical carcinoma (HeLa) cells; assay: (Photo-)cytotoxicity on 2D cell monolayers, resazurin assay, HeLa; assay type: cell-based; conditions: for PI (480 nm): dark vs 480 nm (10 min, 3.1 J/cm^2); for PI (540 nm): dark vs 540 nm (40 min, 9.5 J/cm^2)
Description: Before an experiment, the cells were passaged three times.

[2] = system: mouse colon carcinoma (CT-26) cells
Protocol: The human glioblastoma astrocytoma (U373) cell line was cultured in MEM medium supplemented with 10% FBS, 1% NEAA (non-essential amino-acids) and 1% penicillin/streptomycin. […] The human retinal epithelial cells (RPE-1, non-cancerous cells immortalized with hTERT) were cultured in DMEM-F12 medium supplemented with 10% FBS and 1% penicillin/streptomycin. All cell lines were obtained from the American Type Culture Collection (ATCC) and cultured at 37° C. and 5% CO2. Before an experiment, the cells were passaged three times.
The cytotoxicity of the compounds was assessed by measuring cell viability using a fluorometric resazurin assay. The cultivated cells were seeded in triplicates in 96 well plates with a density of 4000 cells per well in 100 μL of media. After 24 h, the medium was removed and the cells were treated with increasing concentrations of the compound diluted in cell media achieving a total volume of 200 μL. The cells were incubated with the compound for 4 h. After this time, the media was removed and replaced with 200 μL of fresh medium. For the phototoxicity studies, the cells were exposed to light with an Atlas Photonics LUMOS BIO irradiator. Each well was constantly illuminated with either a 480 nm or 540 nm irradiation. During this time, the temperature was maintained constantly at 37° C. The cells were grown in the incubator for additional 44 h. For the determination of the dark cytotoxicity, the cells were not irradiated and after the medium exchange directly incubated for 44 h. After this time, the medium was replaced with fresh medium containing resazurin with a final concentration of 0.2 mg/mL. After 4 h incubation, the amount of the fluorescent product resorufin was determined upon excitation at 540 nm and measurement its emission at 590 nm using a SpectraMax M2 Microplate Reader (Molecular Devices).
The obtained data was analyzed with the GraphPad Prism software.

[3] = Singlet oxygen measurement, direct evaluation (1O2 luminescence at 1270 nm); assay type: physicochemical
Protocol: The samples were prepared in an air saturated CH3CN or D2O solution with an absorbance of 0.2 at 450 nm. This solution was irradiated in fluorescence quartz cuvettes (width 1 cm) using a mounted M450LP1 LED (Thorlabs) whose irradiation, centered at 450 nm, has been focused with aspheric condenser lenses. The intensity of the irradiation has been varied using a T-Cube LED Driver (Thorlabs) and measured with an optical power and energy meter. The emission signal was focused and collected at right angle to the excitation pathway and directed to a Princeton Instruments Acton SP-2300i monochromator. A longpass glass filter was placed in front of the monochromator entrance slit to cut off light at wavelengths shorter than 850 nm. As a detector an EO-817L IR-sensitive liquid nitrogen cooled germanium diode detector (North Coast Scientific Corp.) has been used. The singlet oxygen luminesce at 1270 nm was measured by recording spectra from 1100 to 1400 nm. For the data analysis, the singlet oxygen luminescence peaks at different irradiation intensities were integrated. The resulting areas were plotted against the percentage of the irradiation intensity and the slope of the linear regression calculated. The absorbance of the sample was corrected with an absorbance correction factor. As reference for the measurement Rose Bengal (Φ=76%) (Kochevar, I. E. and Redmond, R. W., 2000) was used and the singlet oxygen quantum yields were calculated using the following formula:
Φsample=Φreference*(Ssample/Sreference)*(Ireference/Isample)
Φ=singlet oxygen quantum yield, S=slope of the linear regression of the plot of the areas of the singlet oxygen luminescence peaks against the irradiation intensity, I=absorbance correction factor, […] of the irradiation source, A=absorbance of the sample at irradiation wavelength.

[4] = Singlet oxygen measurement, indirect evaluation (RNO absorbance); assay type: physicochemical
Protocol: For the measurement in CH3CN: The samples were prepared in an air-saturated CH3CN solution containing the complex with an absorbance of 0.2 at the irradiation wavelength, N,N-dimethyl-4-nitrosoaniline aniline (RNO, 24 μM) and imidazole (12 mM). For the measurement in PBS buffer: The samples were prepared in an air-saturated PBS solution containing the complex with an absorbance of 0.1 at the irradiation wavelength, N,N-dimethyl-4-nitrosoaniline aniline (RNO, 20 μM) and histidine (10 mM). The samples were irradiated on 96 well plates with an Atlas Photonics LUMOS BIO irradiator for different times. The absorbance of the samples was measured during these time intervals with a SpectraMax M2 Microplate Reader (Molecular Devices). The difference in absorbance (A0−A) at 420 nm for the CH3CN solution or at 440 nm a PBS buffer solution was calculated and plotted against the irradiation times. From the plot the slope of the linear regression was calculated as well as the absorbance correction factor determined. The singlet oxygen quantum yields were calculated using the same formulas as used for the direct evaluation.

[5] = system: HeLa MCTS; assay: (Photo-)cytotoxicity on 3D multicellular tumor spheroids (ATP, CellTiter-Glo 3D); assay type: cell-based, human; conditions: for PI (1-Photon): dark vs 1-Photon irradiation (500 nm, 10 J/cm^2); for PI (2-Photon): dark vs 2-Photon irradiation (800 nm, 10 J/cm^2)
Protocol: autoclave. The hot emulsion was transferred into wells (50 μL per well) of a 96 cell culture well plate. The plates were exposed for 3 h to UV irradiation to ensure the sterility and allow the agarose solution to cool down. After this time, the agarose was overlayed with a HeLa cell suspension at a density of 3000 cells per well in 150 μL of media. The MCTS were cultivated and maintained at 37° C. in a cell culture incubator at 37° C. with 5% CO2 atmosphere. The culture media was replaced every two days. Within two-three days MCTs were formed from the cell suspension. The formation as well as integrity, diameter and volume of the MCTs was monitored by an Axio Observer Z1 (Carl Zeiss) phase contrast microscope. The volume was calculated using the following formula: V=4/3πr^3. The luminescence images along the z-axis were captured by a one-(λex=458 nm, λem=600-750 nm) or two-photon (λex=800 nm, λem=600-750 nm) excitation in the z-stack mode with a an LSM 880 (Carl Zeiss) laser scanning confocal microscope equipped with Argon and a Coherent Chameleon 2-Photon laser and a GaAsP detector.
The cytotoxicity of the compounds in 3D multicellular tumor spheroids (MCTS) was assessed by measurement of the ATP concentration. MCTS were treated with increasing concentrations of the compound (2% DMSO, v %) by replacing 50% of the media with drug supplemented media and incubation for 12 h. After this time, the MCTS were divided in three identical groups. The first group was strictly kept in the dark. The second group was exposed to a one-photon irradiation (500 nm, 10 J/cm^2) using a LED and the third group was exposed to a two-photon irradiation (800 nm, 10 J/cm^2) with a section interval of 5 μm using a LSM 880 (Carl Zeiss, Germany) laser scanning confocal microscope equipped with a Coherent Chameleon 2-Photon laser. After the irradiation, all groups were incubated additional 48 h. The ATP concertation was measured using a CellTiter-Glo 3D Cell Viability kit (Promega) by measuring the generated chemiluminescence with an infinite M200 PRO (Tecan) plate reader.

[6] = Luminescence quantum yield measurements; assay type: physicochemical; design: key: fraction, relative to [Ru(bipy)3]Cl2 reference in CH3CN (Φem=5.9%); conditions: CH3CN, room temperature, excitation at 355 nm
Protocol: For the determination of the luminescence quantum yield, the samples were prepared in an CH3CN solution with an absorbance of 0.1 at 355 nm. This solution was irradiated in fluorescence quartz cuvettes (width 1 cm) using a NT342B Nd-YAG pumped optical parametric oscillator (Ekspla) at 355 nm. The emission signal was focused and collected at right angle to the excitation pathway and directed to a Princeton Instruments Acton SP-2300i monochromator. As a detector a XPI-Max 4 CCD camera (Princeton Instruments) has been used. The luminescence quantum yields were determined by comparison with the reference [Ru(bipy)3]Cl2 in CH3CN (Φem=5.9%) (Nakamaru, K., 1982) applying the following formula:
Φem, sample=Φem, reference*(Freference/Fsample)*(Isample/Ireference)*(nsample/nreference)^2
Φem=luminescence quantum yield, F=fraction of light absorbed, I=integrated emission intensities, n=refractive index, A=absorbance of the sample at irradiation wavelength.

[7] = dark, 4 h incubation, compounds 1-3 as chloride salts, read-out: IC50 dark
[8] = read-out: IC50 480 nm (10 min, 3.1 J/cm^2), irradiation 480 nm (10 min, 3.1 J/cm^2), compounds 1-3 as chloride salts
[9] = read-out: IC50 540 nm (40 min, 9.5 J/cm^2), irradiation 540 nm (40 min, 9.5 J/cm^2), compounds 1-3 as chloride salts
[10] = 1-Photon irradiation (500 nm, 10 J/cm^2), read-out: IC50 1-Photon irradiation (500 nm, 10 J/cm^2)
[11] = 2-Photon irradiation (800 nm, 10 J/cm^2, section interval of 5 μm), read-out: IC50 2-Photon irradiation (800 nm, 10 J/cm^2)
[12] = dark, 12 h incubation, read-out: IC50 dark

Compound | PI (480 nm) [1] | PI (540 nm) [1] | IC50 [1, 7] [µM] | IC50 [1, 8] [µM] | IC50 [1, 9] [µM] | IC50 [2] [µM] | Singlet oxygen quantum yield, direct 450 nm CH3CN [3] [%] | Singlet oxygen quantum yield, indirect 450 nm CH3CN ([4]; CH3CN) [%] | Singlet oxygen quantum yield, indirect 450 nm PBS [4] [%] | Singlet oxygen quantum yield, indirect 540 nm CH3CN ([4]; CH3CN) [%] | Singlet oxygen quantum yield, indirect 540 nm PBS [4] [%] | IC50 [5, 10] [µM] | IC50 [5, 11] [µM] | PI (1-Photon) [5] | PI (2-Photon) [5] | IC50 [5, 12] [µM] | ϕem (Luminescence Quantum Yield) [6] | singlet oxygen quantum yields in CH3CN ([4]; CH3CN, range over direct and indirect methods, 450 and 540 nm) | singlet oxygen quantum yields in an aqueous solution ([4]; aqueous solution (PBS), range over 450 and 540 nm) | phototoxicity in HeLa MCTS ([5]; 1 Photon and 2 Photons irradiation, compared with compounds 4-6, 8, 10)
COc1ccc(/C=C/c2ccnc(-c3cc(/C=C/c4ccc(OC)cc4)ccn3)c2)cc1.COc1ccc(/C=C/c2ccnc(-c3cc(/C=C/c4ccc(OC)cc4)ccn3)c2)cc1.F[P-](F)(F)(F)(F)F.F[P-](F)(F)(F)(F)F.[Ru+2].c1ccc(-c2ccccn2)nc1 [Compound 5, [Ru(bipy)((E,E′)-4,4′-Bis[p-methoxystyryl]-2,2′-bipyridine)2][PF6]2] | >16.7 | >12.7 | > 100 | 6.4 ± 1.7 | 7.9 ± 1.3 | 5.1 ± 1.1 | 54 | 51 | 8 | 46 | 6 | 19.3 ± 2.7 | 13.4 ± 3.9 | >5.2 | >7.5 | > 100 | 0.014 |  |  | 
[Ru(bipy)2((E,E′)-4,4′-Bis[p-(N,N-methoxy)styryl]-2,2′-bipyridine)][PF6]2 [Compound 7] | >83.3 | >66.7 | > 100 | 1.2 ± 0.4 | 1.5 ± 0.5 | 0.7 ± 0.4 | 75 | 77 | 11 | 68 | 10 | 6.8 ± 0.2 | 1.4 ± 0.2 | >44.1 | >214.3 | > 300 | 0.028 | 68-77% | 10-11% | much higher phototoxicity
CN(C)c1ccc(/C=C/c2ccnc(-c3cc(/C=C/c4ccc(N(C)C)cc4)ccn3)c2)cc1.F[P-](F)(F)(F)(F)F.F[P-](F)(F)(F)(F)F.[Ru+2].c1ccc(-c2ccnc3c2ccc2c(-c4ccccc4)ccnc23)cc1.c1ccc(-c2ccnc3c2ccc2c(-c4ccccc4)ccnc23)cc1 [Compound 10, [Ru(4,7-Diphenyl-1,10-phenanthroline)2((E,E′)-4,4′-Bis[p-(N,N-dimethylamino)styryl]-2,2′-bipyridine)][PF6]2] | 6.7 | 6.3 | 10.7 ± 1.4 | 1.6 ± 0.3 | 1.7 ± 0.4 | 1.3 ± 0.3 | 51 | 48 | 2 | 43 | 2 | 8.9 ± 0.7 | 3.1 ± 0.6 | 3.1 | 9.0 | 27.8 ± 3.6 | 0.006 |  |  | 
CN(C)c1ccc(/C=C/c2ccnc(-c3cc(/C=C/c4ccc(N(C)C)cc4)ccn3)c2)cc1.F[P-](F)(F)(F)(F)F.F[P-](F)(F)(F)(F)F.[Ru+2].c1cnc2c(c1)ccc1cccnc12.c1cnc2c(c1)ccc1cccnc12 [Compound 8, [Ru(phen)2((E,E′)-4,4′-Bis[p-(N,N-dimethylamino)styryl]-2,2′-bipyridine)][PF6]2] | >7.9 | >8.8 | > 100 | 12.6 ± 1.3 | 11.4 ± 1.5 | 8.2 ± 1.1 | 59 | 62 | 3 | 57 | 2 | 32.6 ± 2.5 | 27.8 ± 3.1 | >9.2 | >10.8 | > 300 | 0.004 |  |  | 
CN(C)c1ccc(/C=C/c2ccnc(-c3cc(/C=C/c4ccc(N(C)C)cc4)ccn3)c2)cc1.CN(C)c1ccc(/C=C/c2ccnc(-c3cc(/C=C/c4ccc(N(C)C)cc4)ccn3)c2)cc1.F[P-](F)(F)(F)(F)F.F[P-](F)(F)(F)(F)F.[Ru+2].c1ccc(-c2ccccn2)nc1 [Compound 4, [Ru(bipy)((E,E′)-4,4′-Bis[p-(N,N-dimethylamino)styryl]-2,2′-bipyridine)2][PF6]2] | >11.8 | >9.4 | > 100 | 8.5 ± 1.2 | 10.6 ± 2.2 | 7.3 ± 1.4 | 34 | 40 | 2 | 37 | 3 | 78.3 ± 5.1 | 63 ± 4.2 | >1.3 | >1.6 | > 100 | 0.004 |  |  | 
